Reference: patent US12678431B2, “Pharmaceutical composition for treatment of dementia and cerebrovascular disorders” (FUSO PHARMACEUTICAL INDUSTRIES, LTD., priority 2019, dated 2026)

Tests used:
Type in all cases: in vivo
[1] = test system: vascular dementia disease model mouse (BCAS model); assay: Test for influence on cerebral blood flow (Laser-Doppler blood flow meter) in vascular dementia disease model mice; conditions: 50, 75 or 100 μmol/kg oral or intraperitoneal, three times/week, measured up to 14 days after surgery, FIG. 5
Excerpt: (§1) Firstly, according to a general preparation method for vascular dementia disease model mouse (for example, Shibata M, Ohtani R, Ihara M, et al., Stroke 35: 2598-2603, 2004; or Ihara M, Taguchi A, Maki T, et al., Methods Mol Biol 1135: 95-102, 2014), the mouse was equipped with a 0.18 mm microcoil into a right common carotid artery of the mice and a 0.16 mm microcoil into a left common carotid artery thereof.
(§2) Next, a vascular dementia disease model mouse (hereinafter sometimes referred to as Bilateral common artery stenosis (BCAS) model) was prepared according to the below-mentioned schedule as shown in FIG. 1.
In the vascular dementia disease model mice (N (number of animals)=6 to 8 animals) that were prepared in the Test Example 1, a cerebral blood flow of a boundary region (blegma) between middle cerebral artery and anterior cerebral artery was measured at immediately before ischemic surgery, immediately after ischemic surgery, after 1 day, after 4 days, after 7 days or after 14 days. A Laser-Doppler blood flow meter was fixed on a skull, and a cerebral blood flow was measured, and the cerebral blood flow was evaluated as a ratio thereof to cerebral blood flow immediately before ischemic surgery. […]

[2] = test system: matrix metalloproteinase 9 (MMP-9); assay: Test for suppression of blood-brain barrier disruption (western blotting, MMP-9 antibody) in vascular dementia disease model mouse; conditions: BCAS model mouse; 100 μmol/kg oral or intraperitoneal, three times/week; hippocampus and striatal tissue, 7 days after the surgery; FIG. 2
Excerpt: as §1
Next, a vascular dementia disease model mouse (hereinafter sometimes referred to as Bilateral common artery stenosis (BCAS) model) was prepared according to the below-mentioned schedule as shown in FIG. 1. […]
The vascular dementia disease model mouse which was prepared in the Test Example 1 was euthanized on 7 days after the surgery. […] The homogenate was crushed with ultrasonic while cooling on ice, and after centrifuging, the supernatant was subjected to a protein quantification by a bicinchoninic acid (BCA) method. Thereafter, the prepared protein sample was evaluated on an effect on suppression of blood-brain barrier disruption according to a western blotting method using antibody against matrix metalloproteinase 9 (MMP-9) similarly to a generally known method. […]

[3] = test system: myelin basic protein (MBP); assay: Test for suppression against reduction of a myelin basic protein (MBP), brain section immunostaining in vascular dementia disease model mouse; conditions: BCAS model mouse; 100 μmol/kg oral or intraperitoneal, three times/week; brain frozen section, 28 days after the surgery; FIG. 3
Excerpt: as §1, §2
Ethoxyquin or methyldopa were administered by an oral administration or an intraperitoneal administration in a dose of 100 μmol/kg by a ratio of three times/week until the completion of the test (for example, for 1 to 4 weeks). Here the test results in the case where a healthy mouse as control was used is shown.
The vascular dementia disease model mouse which was prepared in the Test Example 1 was euthanized on 28 days after the surgery. The frozen section of the brain of the mice (N (number of animal)=6 to 8 animals) were immobilized in cold acetone for 10 minutes, and washed with PBS for 5 minutes (× three times). […]

[4] = test system: vascular dementia disease model mouse (BCAS model); assay: Novel object recognition test in vascular dementia disease model mouse; conditions: 100 μmol/kg oral or intraperitoneal, three times/week, FIG. 4
Excerpt: as §1, §2
Ethoxyquin or methyldopa were administered by an oral administration or an intraperitoneal administration in a dose of 100 μmol/kg by a ratio of three times/week until the completion of the test (for example, for 1 to 4 weeks). […]
A novel object recognition test was conducted by utilizing rodent's character of seeking novelty. […] After a certain times were passed, one of the object was changed by a novel object, and the animals were placed in the same observation box again, and the time exploring an object was measured for 10 minutes (Test trial). The time exploring a novel object or the time exploring the learned object were defined as “N” or “F” respectively, and were calculated by the following equation: the Exploration time=N+F, and the Discrimination Index=(N−F)/(N+F). […]

SMILES	influence on cerebral blood flow (ratio to flow immediately before ischemic surgery) [1]	effect on suppressing a blood-brain barrier disruption (MMP-9 western blotting) [2]	effect on suppression of the reduction of myelin basic protein [3]	novel object recognition (cognitive dysfunction, long-term spatial memory; Discrimination Index) [4]
CCOc1ccc2c(c1)C(C)=CC(C)(C)N2 [Compound 1, 6-Ethoxy-2,2,4-trimethyl-1,2-dihydroquinoline]	do not affect any cerebral blood flow	suggested an effect on suppressing a blood-brain barrier disruption	suggested an effect on a suppression of the reduction of myelin basic protein	showed an improved cognitive dysfunction in a long-term spatial memory
C[C@](N)(Cc1ccc(O)c(O)c1)C(=O)O [Compound 2, Methyldopa sesquihydrates]	do not affect any cerebral blood flow	suggested an effect on suppressing a blood-brain barrier disruption	suggested an effect on a suppression of the reduction of myelin basic protein	showed an improved cognitive dysfunction in a long-term spatial memory
